US5641751A, “Tumor necrosis factor inhibitors” (Centocor, Inc., priority 1995, dated 1997)
pIC50: −log10 of the molar value. Read-outs that look alike come from different tables or passages of the source. Ends that are not written are not given here.

Target: T1, human TNFα (Homo sapiens, UniProt P01375)
T1 construct: purchased Biosource, Camarillo, Calif
Experiment: p55 Receptor/IgG fusion protein binding assay (inhibition of TNFα capture by p55-Ig coated plate)
Settings: inhibition of binding of TNFα to p55TNFr-IgG chimeric construct
Experimental: This assay was designed to identify peptides which bind to human TNFα and thereby prevent the capture of the TNFα by a microtiter plate coated with p55-Ig fusion protein. A constant concentration of human TNFα is preincubated with the test peptide and then incubated on the p55-Ig coated microtiter wells. Bound TNFα is detected using a specific antisera and an alkaline phosphatase-conjugated probe.
A 96-well, U-bottom polyvinylchloride microtiter plate was coated with 50 μl/well of p55-Ig fusion protein at 5 μg/ml in 0.01M sodium phosphate, 0.15M sodium chloride (PBS) by incubation overnight at 4° C. or 2 hours at 37° C. The fusion protein, which consists of a p55 TNF receptor protein portion and an IgG portion, can be produced as disclosed in U.S. application Ser. No. 08/010,406 filed Jan. 29, 1993 which is incorporated herein by reference. The plate was washed three times with 0.05% Tween-20 in PBS, then blocked, by adding 150 μl/well of assay buffer (10 mM N-2-hydroxyethylpiperazine-N'-[…] (HEPES) pH 7.2, containing 0.1% porcine gelatin, 0.1% Tween-80, and 0.01% sodium azide) and continuing incubation for 1 hour at 37° C. or at 4° C. for 1-7 days.
Lyophilized peptides to be tested were weighed in tared 12×75 mm polystyrene tubes and reconstituted to a concentration of 1.2 mM with assay buffer. Each suspension was sonicated in a water bath for 1-5 minutes and vortexed 15-30 seconds to disperse large particles. Serial dilutions of each peptide suspension were prepared using assay buffer in a 96-well polystyrene microtiter plate. Additional wells received Fab fragment of the mouse/human monoclonal anti-human TNFα antibody cA2 (positive control) or assay buffer (negative control). […] The polystyrene dilution plate was then sealed and incubated 1 hour at room temperature on an orbital mixer set at moderate speed.
Following the sample preincubation, blocker was discarded from the p55-Ig coated plate and blotted dry. Aliquots (50 μl) of each peptide or control were transferred into duplicate wells on the p55-Ig coated plate which was then sealed and incubated 1 hour at 37° C. Duplicate wells containing only assay buffer were included as a plate blank. After incubation the p55-Ig plate was washed three times with 0.05% Tween-20 in PBS.
To detect TNFα captured by the p55-Ig plate, all wells were incubated in succession with polyclonal rabbit anti-human TNFα (Genzyme, Boston, Mass.; 1:500 in assay buffer, 50 μl/well), biotinylated goat anti-rabbit Ig (H&L) (Vector Laboratories, Burlingame, Calif.; 1 μg/ml in assay buffer, 50 μl/well) and streptavidin-alkaline phosphatase conjugate (Pierce, Rockford, Ill.; 1 μg/ml in assay buffer, 50 μl/well). All incubations were for 1 hour at 37° C. and after each incubation the plate was washed three times with 0.05% Tween-20 in PBS. Fifty microliters of alkaline phosphatase substrate solution (alkaline buffer (Sigma, St. Louis, Mo.) diluted 1:500 in deionized water plus one 5 mg tablet of p-nitrophenyl phosphate (Sigma, St. Louis, Mo.) per 5 ml of diluted buffer) was added to all wells and incubation continued for 20 minutes at room temperature. Color development was stopped by adding to all wells 50 μl of 3N sodium hydroxide. The optical density (OD) at 405 nm was measured on a microtiter plate reader (Molecular Devices Vmax plate reader), with the plate blank wells subtracted as background. The activity of each peptide was then expressed as the percent inhibition of TNFα capture by the p55-Ig plate, relative to the amount of TNFα captured in wells containing only assay buffer (negative control), as follows:
% inhibition=100-((mean OD peptide/mean OD negative control)×100).
The inhibition of binding of TNFα to p55TNFr-IgG chimeric construct was performed as described above using several embodiments of the invention. The peptides were tested to determine the concentration necessary to inhibit TNFα by 50% (IC50) relative to TNFα activity in the absence of the peptide.

[1] = TNFα 25 ng/ml, read-out: IC50 (concentration necessary to inhibit TNFα by 50%)
[2] = highest value observed, read-out: maximum IC50 observed
[3] = lowest value observed, read-out: minimum IC50 observed

T1 sequence (P01375 77-233 limits assumed): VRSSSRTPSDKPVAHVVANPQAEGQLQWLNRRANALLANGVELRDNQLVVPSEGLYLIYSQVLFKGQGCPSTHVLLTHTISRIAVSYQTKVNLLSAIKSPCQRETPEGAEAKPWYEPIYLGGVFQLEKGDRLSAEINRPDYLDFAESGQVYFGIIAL

Row | pIC50 [1] | pIC50 [2] | pIC50 [3] | Substance
1 | 3.51 | 3.08 | 4.54 | Ac-LLIYYVSNRYTGV-NH2 [SEQ ID NO:18]
2 | 3.81 | 3.68 | 4.29 | Ac-LLIYYVSNRYTG-NH2 [SEQ ID NO:17]
3 | 4.07 | 3.82 | 4.43 | Ac-VIWRGGSTDYNAAFMS-NH2 [SEQ ID NO:20]
4 | 4.64 | 4.48 | 5.00 | SEQ ID NO:3: SEQ ID NO:3 in which the carboxy terminal tryptophan is tryptophan amide; comprises a fragment of SEQ ID NO:2 (SAASSVSFMYW-NH2)
5 | 4.70 | 4.04 | 5.10 | Ac-NINPNNGGTIYNQFKFGKG-NH2 [SEQ ID NO:1]
6 | 4.10 | 4.06 | 4.13 | SASSSVSFMYA-NH2 [SEQ ID NO:4]
7 | 4.54 | 4.22 | 5.05 | Ac-SASSSVSFMYW-NH2 [SEQ ID NO:2]
